Tests used:
Format in all cases: in vivo
Setaria viridis = assay: Test Example 5: herbicidal effect by foliage application, plastic box (symbol G); conditions: 320 g/ha, 3 weeks after application
Method in brief: (§1)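 Visual herbicidal score, taken three weeks post-application, of seedlings sprayed on the foliage with water-diluted emulsion at a predetermined amount; plants were 14 days old, greenhouse-raised at 25° C. to 30° C.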

Alopecurus myosuroides = assay: Test Example 4: herbicidal effect by soil treatment (symbol J); conditions: 320 g/ha
Method in brief: (§2)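 Seeds were sown in sterilized diluvial soil, covered with about 1.5 cm of soil, and the soil surface was sprayed with a water-diluted emulsion of the compound at a predetermined rate. Plants grew in a greenhouse at 25° C. to 30° C.; effects were scored visually 3 weeks after application.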

soybean [1] = assay: Test Example 4: effect on crop by soil treatment (symbol d); conditions: 320 g/ha
Method in brief: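 Greenhouse culture at 25° C. to 30° C. followed sowing of seed in spots on sterilized diluvial soil with a soil cover close to 1.5 cm thick.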

Cyperus difformis = assay: Test Example 3: herbicidal effect by foliage application, Wagner pot (symbol E); conditions: application herbicide amount 320 g/ha
Method in brief: (§3)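 Foliar spray of a water-diluted emulsion at a predetermined herbicide amount, applied to 14-day-old plants. Seedlings were raised in flooded alluvial soil (0.1–0.5 cm water) at 25–30 °C in a greenhouse. Injury was rated after 3 weeks against fixed criteria.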

Abutilon theophrasti = assay: Test Example 5: herbicidal effect by foliage application, plastic box (symbol M); conditions: 320 g/ha, 3 weeks after application
Method in brief: as §1

transplanted rice plant = assay: Test Example 1: effect on crop, application before weed generation in submerged conditions (symbol a); conditions: application herbicide amount 320 g/ha
Method in brief: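 Alluvial soil pots flooded to 4 cm water, sown with Echinochloa oryzacola, Scirpus juncoides and Monochoria vaginalis, then transplanted with 2.5 leaf stage rice seedlings; pre-emergence application. Greenhouse 25° C. to 30° C.; scored 0–5 by herbicidal ratio 3 weeks after application.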

Stellaria media = assay: Test Example 4: herbicidal effect by soil treatment (symbol P); conditions: 320 g/ha
Method in brief: as §2

[2] = tested on: Echinochloa crus-galli var. crus-galli; assay: Test Example 3: herbicidal effect by foliage application, Wagner pot (symbol H); conditions: application herbicide amount 320 g/ha
Method in brief: as §3

Veronica persica = assay: Test Example 4: herbicidal effect by soil treatment (symbol R); conditions: 320 g/ha
Excerpt: Herbicidal Effect Test by Soil Treatment
Sterilized diluvial soil was placed in a plastic box having a length of 21 cm, a width of 13 cm, and a depth of 7 cm. Each of the seeds of Digitaria ciliaris, Setaria viridis, Echinochloa crus-galli var. crus-galli, Avena fatua, Alopecurus myosuroides, Lolium multiflorum Lam., Apera spica-venti, Abutilon theophrasti, Amaranthus retroflexus, Chenopodium album, Stellaria media, Galium spurium, Veronica persica, corn, soybean, rice, wheat, beet, and rapeseed was sowed in a spot-like manner and was covered with the soil of a thickness of about 1.5 cm. Subsequently, the emulsion agent of the compound present invention prepared in accordance with Formulation Example 2 was diluted with water so as to be a predetermined herbicide amount and the diluted emulsion agent was uniformly applied to the surface of the soil with a small-size spray. The plastic box was placed in a greenhouse of 25° C. to 30° C. to grow plant. 3 weeks later from the herbicide application, the effect to each plant was investigated in accordance with the criteria of Test Example 1.

soybean [3] = assay: Test Example 5: effect on crop by foliage application, plastic box (symbol d); conditions: 320 g/ha, 3 weeks after application
Method in brief: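 Greenhouse test at 25° C. to 30° C. Seeds of crops and weeds were spot-sown in boxes of sterilized diluvial soil under roughly 1.5 cm soil cover, then grown for foliage treatment.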

Amaranthus retroflexus = assay: Test Example 4: herbicidal effect by soil treatment (symbol N); conditions: 320 g/ha
Method in brief: as §2

Apera spica-venti = assay: Test Example 5: herbicidal effect by foliage application, plastic box (symbol L); conditions: 320 g/ha, 3 weeks after application
Method in brief: as §1

Leptochloa chinensis = assay: Test Example 3: herbicidal effect by foliage application, Wagner pot (symbol D); conditions: application herbicide amount 320 g/ha
Method in brief: as §3

[4] = tested on: Echinochloa crus-galli var. crus-galli; assay: Test Example 5: herbicidal effect by foliage application, plastic box (symbol H); conditions: 320 g/ha, 3 weeks after application
Method in brief: as §1

Compound	G: Setaria viridis, herbicidal effect (criteria 0-5) (Setaria viridis)	J: Alopecurus myosuroides, herbicidal effect grade (Alopecurus myosuroides)	d: soybean, effect grade on crop (soybean [1])	herbicidal effect on E, grade 0-5 (Cyperus difformis)	M: Abutilon theophrasti, herbicidal effect (criteria 0-5) (Abutilon theophrasti)	Effect grade on crop, a: transplanted rice plant (transplanted rice plant)	P: Stellaria media, herbicidal effect grade (Stellaria media)	herbicidal effect on H (Echinochloa crus-galli var. crus-galli), grade 0-5 [2]	R: Veronica persica, herbicidal effect grade (Veronica persica)	d: soybean, effect on crop (criteria 0-5) (soybean [3])	N: Amaranthus retroflexus, herbicidal effect grade (Amaranthus retroflexus)	L: Apera spica-venti, herbicidal effect (criteria 0-5) (Apera spica-venti)	herbicidal effect on D (Leptochloa chinensis), grade 0-5 (Leptochloa chinensis)	H: Echinochloa crus-galli var. crus-galli, herbicidal effect (criteria 0-5) [4]
CON=C(CC1CC(O)=C(c2c(C)cc(C)cc2C)C1=O)c1ccc(F)cc1 (centres unmarked) [1-133]	4 (Herbicidal ratio of 70% or higher and lower than 90%)	5 (Herbicidal ratio of 90% or more (almost completely withered))	4 (Herbicidal ratio of 70% or higher and lower than 90%)	0 (Herbicidal ratio of 5% or lower (almost no effect))	0 (Herbicidal ratio of 5% or lower (almost no effect))	1 (Herbicidal ratio of 5% or higher and lower than 20%)	0 (Herbicidal ratio of 5% or lower (almost no effect))	3 (Herbicidal ratio of 40% or higher and lower than 70%)	0 (Herbicidal ratio of 5% or lower (almost no effect))	3 (Herbicidal ratio of 40% or higher and lower than 70%)	0 (Herbicidal ratio of 5% or lower (almost no effect))	2 (Herbicidal ratio of 20% or higher and lower than 40%)	0 (Herbicidal ratio of 5% or lower (almost no effect))	4 (Herbicidal ratio of 70% or higher and lower than 90%)
CC(CC1CC(O)=C(c2c(C)cc(C)cc2C)C1=O)=NOCC(C)Br (centres unmarked) [1-135]	5 (Herbicidal ratio of 90% or more (almost completely withered))	5 (Herbicidal ratio of 90% or more (almost completely withered))	0 (Herbicidal ratio of 5% or lower (almost no effect))	–	3 (Herbicidal ratio of 40% or higher and lower than 70%)	5 (Herbicidal ratio of 90% or more (almost completely withered))	0 (Herbicidal ratio of 5% or lower (almost no effect))	5 (Herbicidal ratio of 90% or more (almost completely withered))	2 (Herbicidal ratio of 20% or higher and lower than 40%)	1 (Herbicidal ratio of 5% or higher and lower than 20%)	0 (Herbicidal ratio of 5% or lower (almost no effect))	5 (Herbicidal ratio of 90% or more (almost completely withered))	4 (Herbicidal ratio of 70% or higher and lower than 90%)	5 (Herbicidal ratio of 90% or more (almost completely withered))
CC(CC1CC(O)=C(c2c(C)cc(C)cc2C)C1=O)=NOCc1ccc(Cl)cc1 (centres unmarked) [1-137]	5 (Herbicidal ratio of 90% or more (almost completely withered))	5 (Herbicidal ratio of 90% or more (almost completely withered))	0 (Herbicidal ratio of 5% or lower (almost no effect))	–	4 (Herbicidal ratio of 70% or higher and lower than 90%)	5 (Herbicidal ratio of 90% or more (almost completely withered))	0 (Herbicidal ratio of 5% or lower (almost no effect))	5 (Herbicidal ratio of 90% or more (almost completely withered))	0 (Herbicidal ratio of 5% or lower (almost no effect))	0 (Herbicidal ratio of 5% or lower (almost no effect))	–	5 (Herbicidal ratio of 90% or more (almost completely withered))	5 (Herbicidal ratio of 90% or more (almost completely withered))	5 (Herbicidal ratio of 90% or more (almost completely withered))
CC(CC1CC(O)=C(c2c(C)cc(C)cc2C)C1=O)=NOCc1ccc(C(F)(F)F)cc1 (centres unmarked) [1-138]	5 (Herbicidal ratio of 90% or more (almost completely withered))	5 (Herbicidal ratio of 90% or more (almost completely withered))	0 (Herbicidal ratio of 5% or lower (almost no effect))	–	3 (Herbicidal ratio of 40% or higher and lower than 70%)	5 (Herbicidal ratio of 90% or more (almost completely withered))	0 (Herbicidal ratio of 5% or lower (almost no effect))	3 (Herbicidal ratio of 40% or higher and lower than 70%)	0 (Herbicidal ratio of 5% or lower (almost no effect))	0 (Herbicidal ratio of 5% or lower (almost no effect))	0 (Herbicidal ratio of 5% or lower (almost no effect))	5 (Herbicidal ratio of 90% or more (almost completely withered))	2 (Herbicidal ratio of 20% or higher and lower than 40%)	5 (Herbicidal ratio of 90% or more (almost completely withered))
CC(CC1CC(O)=C(c2c(C)cc(C)cc2C)C1=O)=NOCc1ccc(F)cc1 (centres unmarked) [1-136]	5 (Herbicidal ratio of 90% or more (almost completely withered))	5 (Herbicidal ratio of 90% or more (almost completely withered))	0 (Herbicidal ratio of 5% or lower (almost no effect))	–	3 (Herbicidal ratio of 40% or higher and lower than 70%)	5 (Herbicidal ratio of 90% or more (almost completely withered))	0 (Herbicidal ratio of 5% or lower (almost no effect))	5 (Herbicidal ratio of 90% or more (almost completely withered))	0 (Herbicidal ratio of 5% or lower (almost no effect))	1 (Herbicidal ratio of 5% or higher and lower than 20%)	0 (Herbicidal ratio of 5% or lower (almost no effect))	5 (Herbicidal ratio of 90% or more (almost completely withered))	2 (Herbicidal ratio of 20% or higher and lower than 40%)	5 (Herbicidal ratio of 90% or more (almost completely withered))

Source: patent publication US11000033B2, “Ketone or oxime compound, and herbicide” (NISSAN CHEMICAL CORPORATION, priority 2014, dated 2021)
